Assay results taken from PubChem BioAssay AID1963958 (Molecular Pharmacology Branch, DTP, NCI, 2024).

System: MDA-MB-231 multicell spheroids, viability
Experiment: Anticancer human tumor MDA-MB-231 cell line growth inhibition [PI3K];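 note: spheroids exposed to agents for seven days before reading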;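 for viability, T/C: percent of vehicle control luminescence with DMSO treated spheroids as 100%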
Conditions: for IC50: curve of first compound; for viability, T/C: stronger effect = lower value
Text: Combinatorial screen of targeted agents with the PI3K inhibitors inavolisib, alpelisib, duvelisib, and copanlisib in multi-cell type tumor spheroids
A high-throughput screen of multi-cell type tumor spheroids was designed to identify active combinations of targeted small molecules and PI3K pathway inhibitors. Complex spheroids include a stromal component modeled by human endothelial cells (HUVEC) and fibroblasts modeled by human mesenchymal stem cells (MSCs). The concentration ranges selected for each drug and investigational agent were based upon clinically achievable concentrations if the clinical Cmax of the agent was known.
Compounds. The drugs and investigational agents: inavolisib (NSC800729), alpelisib (NSC765974), duvelisib (NSC772469), copanlisib (NSC816437), ipatasertib (NSC767898), afuresertib (NSC778305), talazoparib (NSC767125), sapanisertib (NSC764658), selumetinib (NSC741078), tovorafenib (DAY101, NSC766906), vemurafenib (NSC761431), ravoxertinib (NSC781343), sotorasib (NSC818433), MRTX1133 (NSC 836407), abemaciclib (NSC 768073), palbociclib (NSC758247), venetoclax (NSC 766270), SY5609 (NSC837396), enzalutamide (NSC755605), and darolutamide (NSC825331), were obtained from the National Cancer Institute (NCI) Developmental Therapeutics Program Chemical Repository. The FDA-approved anticancer drug set is available from the NCI Developmental Therapeutics Program. […] The stock solutions were prepared in dimethyl sulfoxide (DMSO, Sigma-Aldrich, St. Louis, MO, cat. D2650) at 800-fold the tested concentration and stored at -70 degrees C prior to their use. All drugs and investigational agents were tested over a range starting from a high concentration at or near the clinical Cmax and decreasing in half-log increments. If the clinical Cmax for an agent had not been determined, the highest concentration tested was 10 microM.
Cell Culture. All cells were maintained in an incubator at 37 degrees C and 5% CO2 with 95% humidity. The PDC lines were cultured according to standard operating procedures established by the NCI PDMR (https://pdmr.cancer.gov/sops/default.htm). All PDCs were thawed and cultured in Matrigel-coated flasks prepared with a working solution of 1X Ham's F-12 nutrient mix, without supplementation (Invitrogen, Waltham, MA, cat. 11765054), 100 U/mL penicillin-streptomycin (Invitrogen, cat. 15140122), and 2.5% Matrigel (Corning Inc., Corning, NY, cat. 354248) for the first three passages. The 354836-022-R-J1-PDC, 475296-252-R-J1-PDC, and 997726-040-R-J2-PDC lines were cultured in 6A media, which includes advanced DMEM/F-12 (Thermo Fisher Scientific, cat. 12634028), 10 mM HEPES (Thermo Fisher Scientific, cat. 15630080), 1X GlutaMAX supplement (Thermo Fisher Scientific, cat. 35050061), 0.1 mg/mL primocin (InvivoGen, San Diego, CA, cat. ant-pm-2), 10% defined fetal bovine serum, heat inactivated (HyClone Laboratories Inc., Logan, UT, cat. SH30070.03HI), 50% L-WRN conditioned media (ATCC, cat. CRL-3276), 1.25 mM N-Acetyl-L-cysteine (Sigma-Aldrich, cat. A9165), 10 mM nicotinamide (Sigma-Aldrich, cat. N0636), 1X B-27 supplement (Thermo Fisher Scientific, cat. 17504044), 1X N-2 supplement (Thermo Fisher Scientific, cat. 17502048), and 10 microM Y-27632 dihydrochloride (Tocris Bioscience, Bristol, United Kingdom, cat. 1254). The 624824-186-R-J2-PDC line was cultured in 6C/Colon 1B media, which includes all 6A media components plus 50 ng/mL human EGF recombinant protein (Thermo Fisher Scientific, cat. PHG0311). […]

For Cn1cnc2c(F)c(Nc3ccc(Br)cc3Cl)c(C(=O)NOCCO)cc21 + CC(Nc1ccc2c(c1)OCCn1cc(N3C(=O)OCC3C(F)F)nc1-2)C(N)=O, the IC50 (second compound 0.00316 µM) was 674 nM, the IC50 (second compound 0.01 µM) was 1100 nM and the IC50 (second compound 0.0316 µM) was 34.1 nM. For the same compound, the IC50 (second compound 0.1 µM) was < 9.49 nM, the IC50 (second compound 0.316 µM) was < 9.49 nM and the IC50 (second compound 1 µM) was < 9.49 nM. For the same compound, the viability, T/C (second compound 0.00316 µM, first compound 0.00949 µM) was 67.7%, the viability, T/C (second compound 0.00316 µM, first compound 0.03 µM) was 60% and the viability, T/C (second compound 0.00316 µM, first compound 0.0949 µM) was 58.2%. It also gave a viability, T/C (second compound 0.00316 µM, first compound 0.3 µM) of 56.2%, a viability, T/C (second compound 0.00316 µM, first compound 0.949 µM) of 49.4% and a viability, T/C (second compound 0.00316 µM, first compound 3 µM) of 32%. For the same compound, the viability, T/C (second compound 0.01 µM, first compound 0.00949 µM) was 56.8%, the viability, T/C (second compound 0.01 µM, first compound 0.03 µM) was 56.2% and the viability, T/C (second compound 0.01 µM, first compound 0.0949 µM) was 54.3%. For the same compound, the viability, T/C (second compound 0.01 µM, first compound 0.3 µM) was 53.9%, the viability, T/C (second compound 0.01 µM, first compound 0.949 µM) was 53% and the viability, T/C (second compound 0.01 µM, first compound 3 µM) was 30.8%. For the same compound, the viability, T/C (second compound 0.0316 µM, first compound 0.00949 µM) was 56.1%, the viability, T/C (second compound 0.0316 µM, first compound 0.03 µM) was 48.1% and the viability, T/C (second compound 0.0316 µM, first compound 0.0949 µM) was 46.1%. For the same compound, the viability, T/C (second compound 0.0316 µM, first compound 0.3 µM) was 44.8%, the viability, T/C (second compound 0.0316 µM, first compound 0.949 µM) was 43.2% and the viability, T/C (second compound 0.0316 µM, first compound 3 µM) was 23%. For the same compound, the viability, T/C (second compound 0.1 µM, first compound 0.00949 µM) was 50.9%, the viability, T/C (second compound 0.1 µM, first compound 0.03 µM) was 41.7% and the viability, T/C (second compound 0.1 µM, first compound 0.0949 µM) was 44%. The viability, T/C (second compound 0.1 µM, first compound 0.3 µM) was 42.1%, the viability, T/C (second compound 0.1 µM, first compound 0.949 µM) was 36.3% and the viability, T/C (second compound 0.1 µM, first compound 3 µM) was 16.7%. It also gave a viability, T/C (second compound 0.316 µM, first compound 0.00949 µM) of 42.5%, a viability, T/C (second compound 0.316 µM, first compound 0.03 µM) of 42% and a viability, T/C (second compound 0.316 µM, first compound 0.0949 µM) of 40.5%. It also gave a viability, T/C (second compound 0.316 µM, first compound 0.3 µM) of 39.8%, a viability, T/C (second compound 0.316 µM, first compound 0.949 µM) of 33.4% and a viability, T/C (second compound 0.316 µM, first compound 3 µM) of 15.4%. The viability, T/C (second compound 1 µM, first compound 0.00949 µM) was 41.1%, the viability, T/C (second compound 1 µM, first compound 0.03 µM) was 35.1% and the viability, T/C (second compound 1 µM, first compound 0.0949 µM) was 38.4%. For the same compound, the viability, T/C (second compound 1 µM, first compound 0.3 µM) was 37.7%, the viability, T/C (second compound 1 µM, first compound 0.949 µM) was 33.9% and the viability, T/C (second compound 1 µM, first compound 3 µM) was 15.3%.
